According to patent US20160333419A1, “GENE SIGNATURES ASSOCIATED WITH SENSITIVITY TO MDM2 INHIBITORS” (DAIICHI SANKYO COMPANY, LIMITED, priority 2014, published 2016):

What was measured:
Assay in all cases: OncoPanel cytotoxicity assay
Assay type in all cases: cell-based
[1] = system: HT1376; details: Homo sapiens, HT-1376, 72 hour incubation
Method in brief: (§1)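 Cells grown in RPMI 1640 with 10% FBS (or a special medium) at 37° C, 5% CO2 were treated 24 hours after seeding for 72 hours with 10 concentrations (3.16-fold dilutions, 0.1% DMSO final). Nuclei were dye-stained and imaged; IC50 was fit from percent of control relative cell count.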

[2] = system: T98G; details: Homo sapiens, 72 hour incubation
Method in brief: as §1

[3] = system: SaOS2; details: Homo sapiens, SAOS-2, 72 hour incubation
Method in brief: as §1

[4] = system: CRO-AP2; details: Homo sapiens, 72 hour incubation
Method in brief: as §1

[5] = system: Detroit 562; details: Homo sapiens, 72 hour incubation
Method in brief: as §1

[6] = system: HT-3; details: Homo sapiens, 72 hour incubation
Method in brief: as §1

[7] = system: BPH1; details: Homo sapiens, BPH-1, 72 hour incubation
Method in brief: as §1

[8] = system: A101D; details: Homo sapiens, 72 hour incubation
Method in brief: as §1

[9] = system: SW620; details: Homo sapiens, SW-620, 72 hour incubation
Method in brief: as §1

[10] = system: SK-N-FI; details: Homo sapiens, 72 hour incubation
Method in brief: as §1

[11] = system: SK-BR-3; details: Homo sapiens, 72 hour incubation
Method in brief: as §1

[12] = system: HCT-116; details: Homo sapiens, 72 hour incubation
Method in brief: as §1

[13] = system: BeWo; details: Homo sapiens, 72 hour incubation
Method in brief: as §1

[14] = system: SCC-9; details: Homo sapiens, 72 hour incubation
Method in brief: as §1

[15] = system: Ramos (RA 1); details: Homo sapiens, 72 hour incubation
Method in brief: as §1

[16] = system: AGS; details: Homo sapiens, 72 hour incubation
Method in brief: as §1

[17] = system: Caki-1; details: Homo sapiens, 72 hour incubation
Method in brief: as §1

[18] = system: SW1417; details: Homo sapiens, 72 hour incubation
Method in brief: as §1

[19] = system: JAR; details: Homo sapiens, 72 hour incubation
Method in brief: as §1

[20] = system: SH-4; details: Homo sapiens, 72 hour incubation
Method in brief: as §1

[21] = system: J-RT3-T3-5; details: Homo sapiens, 72 hour incubation
Method in brief: as §1

[22] = system: COLO 829; details: Homo sapiens, 72 hour incubation
Method in brief: as §1

[23] = system: NCI-H520; details: Homo sapiens, 72 hour incubation
Method in brief: as §1

[24] = system: HCT-15; details: Homo sapiens, 72 hour incubation
Method in brief: as §1

[25] = system: SR; details: Homo sapiens, 72 hour incubation
Method in brief: as §1

[26] = system: BT20; details: Homo sapiens, BT-20, 72 hour incubation
Method in brief: as §1

[27] = system: Colo 320DM; details: Homo sapiens, 72 hour incubation
Method in brief: as §1

[28] = system: CGTH-W-1; details: Homo sapiens, 72 hour incubation
Method in brief: as §1

[29] = system: DoTc2 4510; details: Homo sapiens, 72 hour incubation
Method in brief: as §1

[30] = system: MX1; details: Homo sapiens, 72 hour incubation
Method in brief: as §1

[31] = system: HuCCT1; details: Homo sapiens, HuCCT-1, 72 hour incubation
Method in brief: as §1

[32] = system: BxPC-3; details: Homo sapiens, 72 hour incubation
Method in brief: as §1

[33] = system: MALME3M; details: Homo sapiens, Malme-3M, 72 hour incubation
Method in brief: as §1

[34] = system: CHL-1; details: Homo sapiens, 72 hour incubation
Method in brief: as §1

[35] = system: A427; details: Homo sapiens, A-427, 72 hour incubation
Method in brief: as §1

[36] = system: Hs 766T; details: Homo sapiens, Hs766T, 72 hour incubation
Method in brief: as §1

[37] = system: SCC-4; details: Homo sapiens, 72 hour incubation
Method in brief: as §1

[38] = system: Calu1; details: Homo sapiens, Calu-1, 72 hour incubation
Method in brief: as §1

Structure (SMILES)	IC50 [1] [µM]	IC50 [2] [µM]	IC50 [3] [µM]	IC50 [4] [nM]	IC50 [5] [µM]	IC50 [6] [µM]	IC50 [7] [µM]	IC50 [8] [nM]	IC50 [9] [µM]	IC50 [10] [µM]	IC50 [11] [µM]	IC50 [12] [nM]	IC50 [13] [nM]	IC50 [14] [µM]	IC50 [15] [µM]	IC50 [16] [nM]	IC50 [17] [nM]	IC50 [18] [µM]	IC50 [19] [nM]	IC50 [20] [nM]	other results
CC[C@@H]1CNC2(CC2)CN1C(=O)[C@@H]1C[C@@H](F)CN1C(=O)C1=C(C(C)C)N2C(=N[C@@](C)(c3ccc(Cl)nc3)[C@H]2c2ccc(Cl)c(F)c2)S1 [Compound A, [(5R,6S)-5-(4-Chloro-3-fluorophenyl)-6-(6-chloropyridin-3-yl)-6-methyl-3-(propan-2-yl)-5,6-dihydroimidazo[2,1-b][1,3]thiazol-2-yl][(2S,4R)-2-{[(6R)-6-ethyl-4,7-diazaspiro[2.5]oct-7-yl]carbonyl}-4-fluoropyrrolidin-1-yl]methanone]	38.9	> 40	> 40	204	> 40	> 40	> 40	233	> 40	> 40	27.7	653	1490	> 40	> 40	139	275	> 40	549	590	IC50 [21]: > 40 µM; IC50 [22]: 289 nM; IC50 [23]: > 40 µM; IC50 [24]: 32 µM; IC50 [25]: 257 nM; IC50 [26]: > 40 µM; IC50 [27]: > 40 µM; IC50 [28]: > 40 µM; IC50 [29]: 39.6 µM; IC50 [30]: 39 µM; IC50 [31]: > 40 µM; IC50 [32]: > 40 µM; IC50 [33]: 1040 nM; IC50 [34]: > 40 µM; IC50 [35]: 1650 nM; IC50 [36]: > 40 µM; IC50 [37]: > 40 µM; IC50 [38]: > 40 µM
CC1(C)CCC2(CC1)N[C@@H](C(=O)N[C@@H]1CC[C@@H](C(N)=O)OC1)[C@H](c1ccnc(Cl)c1F)[C@]21C(=O)Nc2cc(Cl)ccc21 [Compound B, (3′R,4′S,5′R)—N-[(3R,6S)-6-carbamoyltetrahydro-2H-pyran-3-yl]-6″-chloro-4′-(2-chloro-3-fluoropyridin-4-yl)-4,4-dimethyl-2″-oxo-1″,2″-dihydrodispiro[cyclohexane-1,2′-pyrrolidine-3′,3″-indole]-5′-carboxamide]	> 10	> 10	> 10	19.1	7.74	> 10	> 10	31.4	7.12	> 10	> 10	50.5	317	> 10	8.66	11.6	38.7	> 10	86.1	116	IC50 [21]: > 10 µM; IC50 [22]: 26.6 nM; IC50 [23]: > 10 µM; IC50 [24]: > 10 µM; IC50 [25]: 26.2 nM; IC50 [26]: > 10 µM; IC50 [27]: > 10 µM; IC50 [28]: 8.04 µM; IC50 [29]: > 10 µM; IC50 [30]: 9.16 µM; IC50 [31]: > 10 µM; IC50 [32]: > 10 µM; IC50 [33]: 87.5 nM; IC50 [34]: 9.1 µM; IC50 [35]: 143 nM; IC50 [36]: > 10 µM; IC50 [37]: > 10 µM; IC50 [38]: > 10 µM
